According to patent US11141495B2, “MRI imaging of amyloid plaque using liposomes” (Texas Children's Hospital, priority 2014, dated 2021):
Like-named read-outs stand apart in the source and are kept apart here.

Experiments:
[1] = target: T1, Aβ(1-40) fibrils (Homo sapiens, UniProt P05067); assay: Binding assay of compounds or compound-labeled liposomes with amyloid fibrils (fluorescence of washed fibrils); conditions: for binding to fibrils, relative fluorescence unit: at a concentration of 1 μM
T1 construct: Aβ(1-40) peptide (rPeptide, Bogart, Ga.); purchased rPeptide, Bogart, Ga
T1 sequence (P05067 672-711): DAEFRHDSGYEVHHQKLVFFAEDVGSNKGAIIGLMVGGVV
Description: (§1) Aβ fibrils were synthesized according to the method of Klunk et al. Ann Neurol, 2004; 55: 306-19, the entire teachings of which are incorporated herein by reference. Briefly, Aβ(1-40) peptide (rPeptide, Bogart, Ga.) was dissolved in phospho-buffered saline, pH 7.4 to a final concentration of 433 μg/mL (100 μM). The solution was stirred using a magnetic stir bar at 700 rpm for 4 h at room temperature to drive the formation of fibrils. The stock solution was aliquoted and stored at −80° C. for future use. The stock solutions were stirred thoroughly before removing aliquots for binding assays to maintain a homogenous suspension of fibrils. […]
(§2) Binding assay: The binding affinity of the compounds or compound-labeled liposomes with the amyloid fibrils was measured by following methods. Ligand-labeled liposomes, ligand stock solutions, and Chrysamine G fix competition assays were diluted with […] to 500 nM. Fibril stock solution was mixed with a stock solution of the compound or the compound-labeled liposomes in a 200 μL reaction mix to give a final concentration of fibrils (20 μM) with test compounds varying from 0.0625-20 μM. The binding mixture was incubated at room temperature for 1 h. Subsequently, the incubated binding mixture was centrifuged for 20 min at 16,400 rpm to separate the fibrils. The fibril precipitate was washed twice with Tris-HCl. Fluorescence was then measured in a Filter Max F-5 multi-mode plate reader (Molecular Devices, Sunnyvale, Calif.), using excitation and emission wavelengths of 405 nm and 535 nm, respectively. Competitive binding assays used 20 μM of fibrils, 1.0 μM test compounds and varying amounts of the non-fluorescent competitor, Chrysamine G and incubated for 1 h.
FIG. 7B is a graph showing fibril binding data and a calculated fit for estimation of the binding constant far Compound ii to fibrils at Kd=5.0 μM. FIG. 7C is a graph showing fibril binding data and a calculated fit for estimation of the binding constant for Compound iii to fibrils at Kd=5.0 μM. […] Binding to fibrils was quantified by measuring the fluorescence of the respective binding agent to washed fibrils. The data was fitted to a monolayer binding equation; Kd=1/Kb.

[2] = test system: cerebral amyloid angiopathy; assay: Fluorescent staining of aged dog frontal cortex tissue sections; conditions: 12.3 year old canine, 1 mM, 2 hours
Description: (§3) Compound iii solutions in PBS were incubated with frontal cortex tissue obtained from autopsy of an AD patient (the University of Kentucky Institutional Review Board approved the use of human tissue for the study; informed consent was obtained prior to autopsy) and a 12.3 year old canine. Both the human and canine tissues had Alzheimer's amyloid pathology confirmed from previous studies. 50 μm thick free-floating sections were mounted on slides and allowed to dry overnight. Slides were then washed in PBS (3×5 min) and incubated in Compound iii solution (1 mM) for 2 hours and then again washed 3×5 min in PBS, and coverslipped in Vectashield mounting medium with […] (Vector Laboratories, Burlingame, Calif.). Sections were imaged on an Olympus BX-51 microscope with a broadpass filter (Olympus Corporation of the Americas, Center Valley, Pa.).

[3] = test system: amyloid plaques; assay: Fluorescent staining of human AD frontal cortex tissue sections; conditions: frontal cortex of an AD autopsy case; 1 mM, 2 hours
Description: as §3

[4] = target: T1, Aβ(1-40) fibrils; assay: Competitive binding assay to fibrils versus Chrysamine G; conditions: for % bound to fibrils in competition with Chrysamine-G: Chrysamine-G concentration of 1 μM, 20 μM fibrils, 1.0 μM test compound
Description: as §1, §2

binding to fibrils, relative fluorescence unit ([1]; 20 μM fibrils) | % bound to fibrils in competition with Chrysamine-G [4] | bound species displaced by Chrysamine G [4] [%] | Kd ([1]; 20 μM fibrils, read-out: Kd, binding constant to fibrils (calculated fit, monolayer binding equation)) [µM] | SMILES | Kd [1] [µM] | labeling of cerebral amyloid angiopathy in aged dog brain tissue [2] | staining of amyloid plaques in human brain tissue [3]
less than 100 k RFU | about 20% | > 80 | – | COc1cc(/C=C/c2ccc(O)cc2)ccc1/C=C/c1ccc(O)cc1 [MeXO4, reference compound] | – | – | –
35 m RFU | about 45% | – | 5 | CN(CCO)c1ccc(/C=C/c2ccncn2)cc1 [Compound ii, (E)-2-{methyl[4-(2-(pyrimidin-4-yl)vinyl)phenyl]amino}ethanol] | – | – | –

SMILES | binding to fibrils, relative fluorescence unit ([1]; 20 μM fibrils) | % bound to fibrils in competition with Chrysamine-G [4] | bound species displaced by Chrysamine G [4] [%] | Kd ([1]; 20 μM fibrils, read-out: Kd, binding constant to fibrils (calculated fit, monolayer binding equation)) [µM] | Kd [1] [µM] | labeling of cerebral amyloid angiopathy in aged dog brain tissue [2] | staining of amyloid plaques in human brain tissue [3]
OCCN(CCO)c1ccc(/C=C/c2ccncn2)cc1 [Compound iii, (E)-2,2′-{[4-(2-(pyrimidin-4-yl)vinyl)phenyl]azanediyl}diethanol] | 400 k RFU | about 55% | – | – | 5 | labels cerebral amyloid angiopathy | specifically stains amyloid plaques
